What was measured:
human CB2 receptors = human CB2 receptors (Homo sapiens (Human), UniProt P34972); assay: functional cAMP assay, CB2; format: cell-based; settings: CHO cells expressing human CB2
human CB1 receptors = human CB1 receptors (Homo sapiens (Human), UniProt P21554); assay: functional cAMP assay, CB1; format: cell-based; settings: CHO cells expressing human CB1
Sequence of human CB1 receptors (P21554 whole entry): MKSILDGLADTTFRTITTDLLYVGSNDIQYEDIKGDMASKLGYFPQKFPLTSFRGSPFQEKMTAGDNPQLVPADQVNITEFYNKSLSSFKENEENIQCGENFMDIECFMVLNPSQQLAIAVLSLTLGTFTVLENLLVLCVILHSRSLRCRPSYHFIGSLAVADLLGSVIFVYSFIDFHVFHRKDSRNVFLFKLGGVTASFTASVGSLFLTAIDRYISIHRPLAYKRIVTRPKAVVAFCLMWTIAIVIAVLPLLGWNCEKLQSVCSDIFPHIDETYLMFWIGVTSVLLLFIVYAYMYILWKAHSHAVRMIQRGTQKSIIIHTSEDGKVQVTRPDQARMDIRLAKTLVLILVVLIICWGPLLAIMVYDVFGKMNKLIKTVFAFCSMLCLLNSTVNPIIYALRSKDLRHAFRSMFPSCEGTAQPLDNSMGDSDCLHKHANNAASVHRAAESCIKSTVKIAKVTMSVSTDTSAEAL

Sequence of human CB2 receptors (P34972 whole entry): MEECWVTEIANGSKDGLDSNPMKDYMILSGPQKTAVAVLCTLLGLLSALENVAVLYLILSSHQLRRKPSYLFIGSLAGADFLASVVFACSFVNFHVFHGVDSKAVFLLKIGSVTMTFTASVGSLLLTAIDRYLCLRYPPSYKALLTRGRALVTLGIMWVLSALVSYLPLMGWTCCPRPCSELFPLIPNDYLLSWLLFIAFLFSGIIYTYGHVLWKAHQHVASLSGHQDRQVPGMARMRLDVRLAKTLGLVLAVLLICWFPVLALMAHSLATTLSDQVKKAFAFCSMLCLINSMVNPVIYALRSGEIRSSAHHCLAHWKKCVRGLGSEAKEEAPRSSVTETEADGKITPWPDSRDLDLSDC

Row | SMILES | EC50 (human CB2 receptors) [nM] | EC50 (human CB1 receptors) [nM]
1 | Cc1nonc1Cn1cnc2c(N3CCC(F)(F)C3)nc(C(C)(C)C)nc21 [Example 16, 3-[[2-tert-butyl-6-(3,3-difluoropyrrolidin-1-yl)purin-9-yl]methyl]-4-methyl-1,2,5-oxadiazole] | 6 | > 10000
2 | CC(C)(C)Nc1nc(N2CC3(COC3)C2)c2ncn(CCC(F)(F)F)c2n1 [Example 142, N-tert-butyl-6-(2-oxa-6-azaspiro[3.3]heptan-6-yl)-9-(3,3,3-trifluoropropyl)purin-2-amine] | 681 | > 10000
3 | CC(C)(C)c1nc(N2CC[C@H](O)C2)c2ncn(Cc3nnnn3C3CC3)c2n1 [Example 139, (3S)-1-[2-tert-butyl-9-[(1-cyclopropyltetrazol-5-yl)methyl]purin-6-yl]pyrrolidin-3-ol] | 201 | > 10000
4 | Cc1nonc1Cn1cnc2c(N3CCC[C@@H]3C#N)nc(C(C)(C)C)nc21 [Example 148, (2R)-1-[2-tert-butyl-9-[(4-methyl-1,2,5-oxadiazol-3-yl)methyl]purin-6-yl]pyrrolidine-2-carbonitrile] | 15.7 | > 10000
5 | Cc1noc(Cn2cnc3c(N4CC(F)(F)C(F)(F)C4)nc(C(C)(C)C)nc32)n1 [Example 80, 5-[[2-tert-butyl-6-(3,3,4,4-tetrafluoropyrrolidin-1-yl)purin-9-yl]methyl]-3-methyl-1,2,4-oxadiazole] | 179 | > 10000
6 | CC(C)(C)c1nc(N2CCC(O)C2)c2ncn(Cc3cccnc3Cl)c2n1 (stereo not drawn) [Example 33, 1-[2-tert-butyl-9-[(2-chloropyridin-3-yl)methyl]purin-6-yl]pyrrolidin-3-ol] | 3.4 | > 10000
7 | CC(C)(C)c1nc(N2CCC(O)C2)c2ncn(Cc3ccccc3C(F)(F)F)c2n1 (stereo not drawn) [Example 28, 1-[2-tert-butyl-9-[[2-(trifluoromethyl)phenyl]methyl]purin-6-yl]pyrrolidin-3-ol] | 1 | > 10000
8 | CC1(O)CCN(c2nc(C(C)(C)C)nc3c2ncn3Cc2cccc(Cl)c2)C1 (stereo not drawn) [Example 65, 1-[2-tert-butyl-9-[(3-chlorophenyl)methyl]purin-6-yl]-3-methylpyrrolidin-3-ol] | 91.6 | > 10000
9 | CC(C)(C)c1nc(N2CCC(F)(F)C2)c2ncn(CC(=O)c3ccccn3)c2n1 [Example 24, 2-[2-tert-butyl-6-(3,3-difluoropyrrolidin-1-yl)purin-9-yl]-1-pyridin-2-ylethanone] | 69.2 | > 10000
10 | CC(C)(C)COc1nc(N2CCC(C)(O)C2)c2ncn(Cc3ccccc3C(F)(F)F)c2n1 (stereo not drawn) [Example 132, 1-[2-(2,2-dimethylpropoxy)-9-[[2-(trifluoromethyl)phenyl]methyl]purin-6-yl]-3-methylpyrrolidin-3-ol] | 22.1 | > 10000
11 | CC1(O)CCN(c2nc(NC(C)(C)C)nc3c2ncn3Cc2c[nH]nc2C(F)(F)F)C1 (stereo not drawn) [Example 136, 1-[2-(tert-butylamino)-9-[[3-(trifluoromethyl)-1H-pyrazol-4-yl]methyl]purin-6-yl]-3-methylpyrrolidin-3-ol] | 150 | > 10000
12 | CC(C)(C)c1nc(N2CCC(F)(F)C2)c2ncn(Cc3ncccc3Cl)c2n1 [Example 21, 2-tert-butyl-9-[(3-chloropyridin-2-yl)methyl]-6-(3,3-difluoropyrrolidin-1-yl)purine] | 2.2 | > 10000
13 | Cn1nnnc1Cn1cnc2c(N3CCC(F)(F)C3)nc(OCC(C)(C)C)nc21 [Example 129, 6-(3,3-difluoropyrrolidin-1-yl)-2-(2,2-dimethylpropoxy)-9-[(1-methyltetrazol-5-yl)methyl]purine] | 95.6 | > 10000
14 | CC(=O)N[C@H]1CCN(c2nc(C(C)(C)C)nc3c2ncn3Cc2cccc(Cl)c2)C1 [Example 49, N—[(S)-1-[2-tert-butyl-9-[(3-chlorophenyl)methyl]purin-6-yl]pyrrolidin-3-yl]acetamide] | 311 | > 10000
15 | CC(C)(C)c1nc(N2CC[C@H](O)C2)c2ncn(Cc3nnnn3CC3CC3)c2n1 [Example 164, (3S)-1-[2-tert-butyl-9-[[1-(cyclopropylmethyl)tetrazol-5-yl]methyl]purin-6-yl]pyrrolidin-3-ol] | 20.7 | > 10000
16 | CC(=O)N[C@H]1CCN(c2nc(C(C)(C)C)nc3c2ncn3Cc2ccccc2S(C)(=O)=O)C1 [Example 52, N—[(S)-1-[2-tert-butyl-9-[(2-methylsulfonylphenyl)methyl]purin-6-yl]pyrrolidin-3-yl]acetamide] | 229 | > 10000
17 | CC(C)(C)c1nc(N2CC(F)(F)C(F)(F)C2)c2ncn(Cc3ccccc3S(C)(=O)=O)c2n1 [Example 106, 2-tert-butyl-9-[(2-methylsulfonylphenyl)methyl]-6-(3,3,4,4-tetrafluoropyrrolidin-1-yl)purine] | 39.9 | > 10000
18 | CC(C)(C)c1nc(N2CCC(O)C2)c2ncn(CC(=O)c3ccccc3Cl)c2n1 (stereo not drawn) [Example 47, 2-[2-tert-butyl-6-(3-hydroxypyrrolidin-1-yl)purin-9-yl]-1-(2-chlorophenyl)ethanone] | 102 | > 10000

Row | SMILES | EC50 (human CB2 receptors) [nM] | EC50 (human CB1 receptors) [nM]
19 | CC(C)(C)c1nc(N2CCC(O)C2)c2ncn(Cc3ncccc3Cl)c2n1 (stereo not drawn) [Example 32, 1-[2-tert-butyl-9-[(3-chloropyridin-2-yl)methyl]purin-6-yl]pyrrolidin-3-ol] | 3.4 | > 10000
20 | CC(C)(C)c1nc(N2CCC(F)(F)C2)c2ncn(CC3CCCCC3)c2n1 [Example 8, 2-tert-butyl-9-(cyclohexylmethyl)-6-(3,3-difluoropyrrolidin-1-yl)purine] | 75.3 | > 10000
21 | Cc1nonc1Cn1cnc2c(N3CCC(F)(F)C3)nc(NC(C)(C)C)nc21 [Example 111, N-tert-butyl-6-(3,3-difluoropyrrolidin-1-yl)-9-[(4-methyl-1,2,5-oxadiazol-3-yl)methyl]purin-2-amine] | 14.7 | > 10000
22 | CC1(O)CCN(c2nc(C(C)(C)C)nc3c2ncn3CCC(F)(F)F)C1 (stereo not drawn) [Example 102, 1-[2-tert-butyl-9-(3,3,3-trifluoropropyl)purin-6-yl]-3-methylpyrrolidin-3-ol] | 135 | > 10000
23 | COc1ccc(Cn2cnc3c(N4CCC(O)C4)nc(C(C)(C)C)nc32)cc1 (stereo not drawn) [Example 31, 1-[2-tert-butyl-9-[(4-methoxyphenyl)methyl]purin-6-yl]pyrrolidin-3-ol] | 21.4 | > 10000
24 | CC(C)(C)c1nc(N2CC[C@H](O)C2)c2ncn(Cc3ccccc3S(C)(=O)=O)c2n1 [Example 90, (3S)-1-[2-tert-butyl-9-[(2-methylsulfonylphenyl)methyl]purin-6-yl]pyrrolidin-3-ol] | 7.9 | > 10000
25 | CC(C)(C)c1nc(N2CCC(F)(F)C2)c2ncn(Cc3ccc(Cl)cc3)c2n1 [Example 1, 2-Tert-Butyl-9-[(4-Chlorophenyl)Methyl]-6-(3,3-Difluoropyrrolidin-1-Yl)Purine] | 11.6 | > 10000
26 | CC(C)(C)c1nc(N2CCC(O)C2)c2ncn(CC3CCCCC3)c2n1 (stereo not drawn) [Example 40, 1-[2-tert-butyl-9-(cyclohexylmethyl)purin-6-yl]pyrrolidin-3-ol] | 71.2 | > 10000
27 | CC(=O)N[C@H]1CCN(c2nc(C(C)(C)C)nc3c2ncn3Cc2cccnc2Cl)C1 [Example 53, N—[(S)-1-[2-tert-butyl-9-[(2-chloropyridin-3-yl)methyl]purin-6-yl]pyrrolidin-3-yl]acetamide] | 175 | > 10000
28 | Cn1nnnc1Cn1cnc2c(N3CC[C@H](O)C3)nc(C(C)(C)C)nc21 [Example 95, (3S)-1-[2-tert-butyl-9-[(1-methyltetrazol-5-yl)methyl]purin-6-yl]pyrrolidin-3-ol] | 363 | > 10000
29 | Cc1nonc1Cn1cnc2c(N3CC[C@H](O)C3)nc(C(C)(C)C)nc21 [Example 96, (3S)-1-[2-tert-butyl-9-[(4-methyl-1,2,5-oxadiazol-3-yl)methyl]purin-6-yl]pyrrolidin-3-ol] | 14.8 | > 10000
30 | CC(=O)N[C@H]1CCN(c2nc(C(C)(C)C)nc3c2ncn3CCC(F)(F)F)C1 [Example 103, N-[(3S)-1-[2-tert-butyl-9-(3,3,3-trifluoropropyl)purin-6-yl]pyrrolidin-3-yl]acetamide] | 211 | > 10000
31 | CCCn1nnnc1Cn1cnc2c(N3CC[C@H](O)C3)nc(C(C)(C)C)nc21 [Example 158, (3S)-1-[2-tert-butyl-9-[(1-propyltetrazol-5-yl)methyl]purin-6-yl]pyrrolidin-3-ol] | 61.6 | > 10000
32 | CC(C)(C)c1nc(N2CC[C@H](O)C2)c2ncn(Cc3cccc(Cl)c3)c2n1 [Example 87, (3S)-1-[2-tert-butyl-9-[(3-chlorophenyl)methyl]purin-6-yl]pyrrolidin-3-ol] | 2.1 | > 10000
33 | CC(C)(C)Nc1nc(N2CC[C@H](O)C2)c2ncn(CCC(F)(F)F)c2n1 [Example 130, (3S)-1-[2-(tert-butylamino)-9-(3,3,3-trifluoropropyl)purin-6-yl]pyrrolidin-3-ol] | 215 | > 10000
34 | Cc1nnc(Cn2cnc3c(N4CCC(F)(F)C4)nc(OCC(C)(C)C)nc32)o1 [Example 127, 2-[[6-(3,3-difluoropyrrolidin-1-yl)-2-(2,2-dimethylpropoxy)purin-9-yl]methyl]-5-methyl-1,3,4-oxadiazole] | 332 | > 10000
35 | Cc1nonc1Cn1cnc2c(N3CCC(F)(F)C3)nc(OCC(C)(C)C)nc21 [Example 140, 3-[[6-(3,3-difluoropyrrolidin-1-yl)-2-(2,2-dimethylpropoxy)purin-9-yl]methyl]-4-methyl-1,2,5-oxadiazole] | 9.2 | > 10000
36 | CC(C)(C)c1nc(N2CC[C@H](O)C2)c2ncn(CCC(F)(F)F)c2n1 [Example 99, (3S)-1-[2-tert-butyl-9-(3,3,3-trifluoropropyl)purin-6-yl]pyrrolidin-3-ol] | 228 | > 10000
